Key:
wild-type RAD51 NPFs = test: EMSA of TR2 titration on wild-type RAD51 nucleoprotein filaments (NPFs); assay type: binding, human
Experimental: (§1) To assess RAD51 nucleoprotein (NPF) formation, wild-type and mutant RAD51 proteins were incubated with DNA in buffer: 25 mM HEPES pH 7.5, 150 mM NaCl, 2 mM DTT, 2 mM ATP, 5 mM CaCl2 for 15 minutes at room temperature. For filament binding of the TR2 peptide or His6-MBP-TR2 protein, the RAD51 NPFs were incubated with TR2 for further 5 minutes at room temperature. For filament binding of BRC4, the BRC4 peptide was pre-mixed with RAD51 for 10 minutes at room temperature before addition of DNA. For experiments with mono-streptavidin (mSA)-capped DNA, mSA (Sigma) was added in 5× molar excess of biotin labels for 15 minutes at room temperature prior to the addition of RAD51. Concentrations are provided in figures and DNA sequences for each experiment are reported in Supplementary Table 1.
(§2) Before electrophoresis, samples were mixed with a 0.5:1 volume of 50% (w/v) sucrose solution and analysed on a pre-run 0.5% (w/v) agarose gel in 0.5× TB buffer at 35 V for 2.5 hours at 4 °C. DNA was visualised by excitation of the fluorescent tag or, in the case of unlabelled DNA, by SYBR Gold staining. Gels were imaged in a Typhoon FLA9000 by excitation at 473 nm for fluorescein-labelled DNA or SYBR Gold-stained gels, 532 nm excitation for Cy3-labelled DNA or 635 nm excitation for Cy5-labelled DNA.
(§3) Supplementary table 1. DNA oligos and peptides
(§4) Oligos Size (nt) Sequence (5’ – 3’)
D184A […] (forward), […]

RAD51 D184A, D187A NPFs = test: EMSA of TR2 titration on RAD51 D184A, D187A NPFs; assay type: binding, human
Experimental: as §1, §2, §3, §4
D184A […] (forward),
D184A, D187A […] (forward),
EMSA, SPR, CryoEM (micrographs,
Panels C, D (ssDNA) 60 FAM-[…]
Panels C, D (dsDNA) 60 FAM-[…],
Panels E, F (ssDNA) 60 Biotin-[…]
Panels E, F (dsDNA) 60 Biotin-[…],
Supplementary figs. 3, 4 (ssDNA) 60 Biotin-[…]
Supplementary figs. 3, 4 (dsDNA) 60 Biotin-[…],
Panel A (ssDNA) 32 Cy5-[…]
Panel B (dsDNA) 50 […]-Cy3,
Panel B (ssDNA) 60 Biotin-[…]-
Panel B (dsDNA) 60 Biotin,
Panel C (ssDNA) 32 Biotin-[…]-Biotin
Panel C (dsDNA) 50 Biotin-[…]-Cy3,
Supplementary fig. 5A 50 […]-Cy3,
Supplementary fig. 5B (ssDNA) 32 Cy5-[…]-Biotin,
Supplementary fig. 5B (ssDNA) 32 Biotin-[…]-Biotin
Supplementary fig. 5B (dsDNA) 50 Biotin-[…],
Panels B, C, D (ssDNA) 60 FAM-[…]
Panels F, G (ssDNA) 60 […]

[1] = tested on: RAD51 NPFs on DNA capped at both ends with mSA; test: EMSA of TR2 binding to RAD51 NPFs on mSA-capped DNA; set-up: species or system human; conditions: doubly-biotinylated ss- and dsDNA, mSA in 5× molar excess of biotin labels; SYBR Gold; two independent repeats
Text: (§5) To understand the structural basis for the association of the BRCA2 C-terminus with the RAD51 nucleoprotein filament, we sought to determine the structure of a RAD51-DNA-TR2 filament by high-resolution cryo-electron microscopy (cryoEM). […] Individual filaments within a bundle appeared to be in translational register relative to each other as it was possible to obtain well-resolved 2D classes of filament pairs (Supplementary fig. 5A, Supplementary Table 1). Filament aggregation induced by TR2 complicated picking of individual filament particles and prevented structural determination by cryoEM. We therefore sought to develop a method to prepare RAD51 NPFs in the presence of TR2 peptide without causing filament bundling. We reasoned that bundling might be alleviated by capping the DNA substrate with a bulky tag, to prevent filament aggregation by steric interference. We therefore prepared ss- and dsDNA substrates with a biotin tag at either one end or both ends, that could be bound by monomeric streptavidin (mSA) (Supplementary Fig. 5B, Supplementary Table 1).
Fig. 2 BRCA2 TR2 induces bundling of RAD51 nucleoprotein filaments. […]
Before electrophoresis, samples were mixed with a 0.5:1 volume of 50% (w/v) sucrose solution and analysed on a pre-run 0.5% (w/v) agarose gel in 0.5× TB buffer at 35 V for 2.5 hours at 4 °C. […]

[2] = tested on: RAD51 NPFs on mSA-capped DNA; test: cryo-electron micrographs, bundling of RAD51 NPFs on mSA-capped DNA; set-up: species or system human; conditions: 1:0.5 molar ratio of TR2 peptide and mSA; ss- and dsDNA; two independent repeats
Text: as §5
Fig. 2 BRCA2 TR2 induces bundling of RAD51 nucleoprotein filaments. A Cryo-electron micrographs of RAD51 NPFs formed on ssDNA and dsDNA in the presence of 1:0.5 molar ratio of TR2 peptide. Extensive NPF aggregation into bundles of aligned filaments is clearly visible (examples marked with dashed white boxes). Two independent repeats. […]

[3] = tested on: RAD51 nucleoprotein filaments; conditions: cited from earlier work
DNA = conditions: cited from earlier work
Text: Our cryoEM maps let us model a highly conserved portion of BRCA2 TR2 that spans residues F3289 to C3304. TR2 sequence conservation extends N-terminally to our model, up to K3263. […] Indeed, the bi ...

[4] = EMSA Fig. 1C, authors' response to reviewers

## DDQKNCKKRRALDFLSRLPLPPPVSPICTFVSPAAQKAFQPPRSCGTKY [TR2, BRCA2 TR2 peptide spanning amino acids 3260 to 3308]
wild-type RAD51 NPFs; 25 mM HEPES pH 7.5, 150 mM NaCl, 2 mM DTT, 2 mM ATP, 5 mM CaCl2, RAD51 + DNA 15 min, then TR2 5 min, room temperature, 0.5% agarose, fluorescein-labelled 60 nt ss- or dsDNA, ssDNA performed twice, dsDNA once
  TR2 binding to wild-type RAD51 NPFs (filament formation and mobility): enhancement of filament formation accompanied by formation of larger species of reduced electrophoretic mobility
wild-type RAD51 NPFs; [4]
  bundling of TR2-bound filaments in the gel: do not show bundling
RAD51 D184A, D187A NPFs; [4]
  residual TR2 binding: retain a degree of binding
RAD51 D184A, D187A NPFs; EMSA, ssDNA compared with dsDNA
  reduction in TR2 binding, ssDNA versus dsDNA filaments: especially pronounced for filaments formed on ssDNA
RAD51 D184A, D187A NPFs; ss- and dsDNA, 25 mM HEPES pH 7.5, 150 mM NaCl, 2 mM ATP, 5 mM CaCl2, TR2 5 min, room temperature, ssDNA performed twice, dsDNA once
  TR2 binding relative to wild-type: reduction in TR2 binding proportional to the decrease in charge at RAD51’s acidic patch
[1]
  TR2 binding by RAD51 NPFs on mSA-capped DNA: competent to bind the TR2 peptide
[2]
  bundling of RAD51 NPFs on mSA-capped DNA: no bundling in the presence of TR2
[3]
  effect of TR2 binding on RAD51 NPFs: stabilisation of RAD51 NPFs and formation of filament aggregates
  protection of RAD51 NPFs from disassembly by BRC repeat 4: protection of RAD51 nucleoprotein filaments from disassembly by BRC repeat 4 of BRCA2
DNA
  DNA-binding activity of TR2: harbours a DNA-binding activity centred on residues 3266-KKRR-3269

Reference: PMC10622577, “Structural basis for stabilisation of the RAD51 nucleoprotein filament by BRCA2” (Nature Communications, 2023)
